Reference: ChEMBL document CHEMBL1150723, “Traditional medicinal plants of Thailand, VIII. Isoflavonoids of Dalbergia candenatensis” (1987)
Converted amounts (≈) assume the structure as drawn. The source made the active and inactive calls. The calls are words filed in the database; no cut-off is given here.

Key:
Format in all cases: functional
Penicillium expansum = assay: Antifungal activity against Penicillium expansum ATCC 7861 after 3 days by microdilution assay
Candida albicans = assay: Antifungal activity against Candida albicans ATCC 10259 after 3 days by microdilution assay
[1] = system: Trichophyton mentagrophytes; assay: Antifungal activity against Trichophyton mentagrophytes ATCC 9533 after 3 days by microdilution assay
Aspergillus niger = assay: Antifungal activity against Aspergillus niger ATCC 6275 after 3 days by microdilution assay
Bacillus subtilis = assay: Antibacterial activity against Bacillus subtilis ATCC 6633 after 16 hrs by microdilution assay; settings: ATCC 6633, 16 h
Escherichia coli = assay: Antibacterial activity against Escherichia coli ATCC 25922 after 16 hrs by microdilution assay; settings: ATCC 25922, 16 h
P388 = assay: Cytotoxicity against mouse P388 cells
Staphylococcus aureus = assay: Antibacterial activity against Staphylococcus aureus ATCC 25923 after 16 hrs by microdilution assay; settings: ATCC 25923, 16 h

NYSTATIN
MIC (Penicillium expansum): 6 µg/mL
MIC (Candida albicans): 1.5 µg/mL
MIC [1]: 3 µg/mL
MIC (Aspergillus niger): 6 µg/mL

COC1=CC(=O)C(c2coc3cc(O)cc(O)c3c2=O)=CC1=O
MIC (Bacillus subtilis): 100 µg/mL (≈ 318 µM)
MIC (Penicillium expansum; ATCC 7861, 72 h): > 100 µg/mL
MIC (Escherichia coli): 50 µg/mL (≈ 159 µM)
MIC (Candida albicans; ATCC 10259, 72 h): > 100 µg/mL
ED50 (P388): inactive
MIC ([1]; ATCC 9533, 72 h): 100 µg/mL (≈ 318 µM)
MIC (Aspergillus niger; ATCC 6275, 72 h): > 100 µg/mL
MIC (Staphylococcus aureus): > 100 µg/mL

COc1ccc([C@@H]2COc3cc(O)ccc3C2)c(O)c1
MIC (Bacillus subtilis): 50 µg/mL (≈ 184 µM)
MIC (Penicillium expansum; ATCC 7861, 72 h): > 100 µg/mL
MIC (Escherichia coli): 50 µg/mL (≈ 184 µM)
MIC (Candida albicans; ATCC 10259, 72 h): > 100 µg/mL
MIC ([1]; ATCC 9533, 72 h): 25 µg/mL (≈ 91.8 µM)
MIC (Aspergillus niger; ATCC 6275, 72 h): > 100 µg/mL
MIC (Staphylococcus aureus): > 100 µg/mL

CN(C)[C@@H]1C(O)=C(C(N)=O)C(=O)[C@@]2(O)C(O)=C3C(=O)c4c(O)cccc4[C@@](C)(O)[C@H]3C[C@@H]12 [TETRACYCLINE]
MIC (Bacillus subtilis): 2.5 µg/mL (≈ 5.63 µM)
MIC (Escherichia coli): 1.2 µg/mL (≈ 2.7 µM)
MIC (Staphylococcus aureus): 0.6 µg/mL (≈ 1.35 µM)

COc1ccc(C2COc3cc(O)ccc3C2)c(OC)c1O (racemic) [MUCRONULATOL(+/-)]
MIC (Bacillus subtilis): > 100 µg/mL
MIC (Penicillium expansum; ATCC 7861, 72 h): > 100 µg/mL
MIC (Escherichia coli): 50 µg/mL (≈ 165 µM)
MIC (Candida albicans; ATCC 10259, 72 h): > 100 µg/mL
MIC ([1]; ATCC 9533, 72 h): 25 µg/mL (≈ 82.7 µM)
MIC (Aspergillus niger; ATCC 6275, 72 h): > 100 µg/mL
MIC (Staphylococcus aureus): > 100 µg/mL

COc1ccc(-c2coc3cc(O)ccc3c2=O)cc1 [FORMONONETIN]
MIC (Bacillus subtilis): > 100 µg/mL
MIC (Penicillium expansum; ATCC 7861, 72 h): 50 µg/mL (≈ 186 µM)
MIC (Escherichia coli): 100 µg/mL (≈ 373 µM)
MIC (Candida albicans; ATCC 10259, 72 h): > 100 µg/mL
MIC ([1]; ATCC 9533, 72 h): > 100 µg/mL
MIC (Aspergillus niger; ATCC 6275, 72 h): 100 µg/mL (≈ 373 µM)
MIC (Staphylococcus aureus): > 100 µg/mL

COC1=CC(=O)C([C@@H]2COc3cc(O)ccc3C2)=CC1=O
MIC (Bacillus subtilis): 3 µg/mL (≈ 10.5 µM)
MIC (Penicillium expansum; ATCC 7861, 72 h): > 100 µg/mL
MIC (Escherichia coli): 6 µg/mL (≈ 21 µM)
MIC (Candida albicans; ATCC 10259, 72 h): 50 µg/mL (≈ 175 µM)
EC50 (P388; read-out: ED50 (the source's name)): 0.5 µg/mL (≈ 1.75 µM)
MIC ([1]; ATCC 9533, 72 h): 25 µg/mL (≈ 87.3 µM)
MIC (Aspergillus niger; ATCC 6275, 72 h): 100 µg/mL (≈ 349 µM)
MIC (Staphylococcus aureus): 6 µg/mL (≈ 21 µM)
